One experiment concerns the target αvβ1 (Homo sapiens, UniProt P05556+P06756). Put plainly: Solid Phase Integrin αvβ1 Assay. Format: binding. The method in brief:
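Wells coated with 1 µg/mL recombinant TGFb1-LAP and blocked with 2% BSA/TBST, 1 mM MnCl2; αvβ1 (added at 0.2 µg/mL) and compound incubated 90 min at room temperature. Bound integrin detected by streptavidin-HRP (20 min) and TMB after Mn-containing washes; IC50 by four-parameter logistic fit.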

A further experiment addresses αvβ6 (Homo sapiens, UniProt P06756+P18564). Put plainly: Solid Phase Integrin αvβ6 Assay. Type of experiment: binding. The method, boiled down: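 Plates coated with 1 μg/mL recombinant TGFb1-LAP; compounds and αvβ6 (0.2 μg/mL diluted stock) incubated 1 h at room temperature in 2% BSA/TBST with 1 mM MnCl2. Bound integrin detected with streptavidin-HRP and TMB; IC50 from four-parameter logistic fits.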

Molecules are shown by their SMILES.

αvβ1, sequence (P06756 31-992 limits assumed): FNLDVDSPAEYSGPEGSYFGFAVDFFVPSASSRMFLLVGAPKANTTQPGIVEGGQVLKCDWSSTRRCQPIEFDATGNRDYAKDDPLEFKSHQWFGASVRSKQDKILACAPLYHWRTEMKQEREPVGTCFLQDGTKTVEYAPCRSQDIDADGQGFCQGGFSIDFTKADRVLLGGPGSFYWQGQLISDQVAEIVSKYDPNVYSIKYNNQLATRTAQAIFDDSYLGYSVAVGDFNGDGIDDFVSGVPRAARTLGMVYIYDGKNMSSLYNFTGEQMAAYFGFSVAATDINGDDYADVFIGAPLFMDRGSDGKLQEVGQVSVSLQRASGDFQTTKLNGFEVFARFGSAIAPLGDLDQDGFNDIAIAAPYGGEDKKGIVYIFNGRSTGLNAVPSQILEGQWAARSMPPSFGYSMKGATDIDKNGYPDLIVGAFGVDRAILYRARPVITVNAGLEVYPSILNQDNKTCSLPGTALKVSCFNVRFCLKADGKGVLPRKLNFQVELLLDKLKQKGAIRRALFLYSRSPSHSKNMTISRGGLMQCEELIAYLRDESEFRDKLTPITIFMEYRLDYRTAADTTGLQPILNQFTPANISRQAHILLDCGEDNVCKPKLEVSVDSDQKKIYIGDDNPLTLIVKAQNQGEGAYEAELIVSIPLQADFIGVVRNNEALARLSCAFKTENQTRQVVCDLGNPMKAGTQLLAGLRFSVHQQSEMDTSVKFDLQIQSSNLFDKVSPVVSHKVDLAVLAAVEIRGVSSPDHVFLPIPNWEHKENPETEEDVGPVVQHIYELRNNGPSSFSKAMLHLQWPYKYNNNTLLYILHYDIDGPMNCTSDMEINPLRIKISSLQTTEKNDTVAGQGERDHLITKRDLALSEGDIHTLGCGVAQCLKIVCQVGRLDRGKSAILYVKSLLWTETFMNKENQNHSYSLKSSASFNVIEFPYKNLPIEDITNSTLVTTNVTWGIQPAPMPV
αvβ1, sequence (P05556 21-728 limits assumed): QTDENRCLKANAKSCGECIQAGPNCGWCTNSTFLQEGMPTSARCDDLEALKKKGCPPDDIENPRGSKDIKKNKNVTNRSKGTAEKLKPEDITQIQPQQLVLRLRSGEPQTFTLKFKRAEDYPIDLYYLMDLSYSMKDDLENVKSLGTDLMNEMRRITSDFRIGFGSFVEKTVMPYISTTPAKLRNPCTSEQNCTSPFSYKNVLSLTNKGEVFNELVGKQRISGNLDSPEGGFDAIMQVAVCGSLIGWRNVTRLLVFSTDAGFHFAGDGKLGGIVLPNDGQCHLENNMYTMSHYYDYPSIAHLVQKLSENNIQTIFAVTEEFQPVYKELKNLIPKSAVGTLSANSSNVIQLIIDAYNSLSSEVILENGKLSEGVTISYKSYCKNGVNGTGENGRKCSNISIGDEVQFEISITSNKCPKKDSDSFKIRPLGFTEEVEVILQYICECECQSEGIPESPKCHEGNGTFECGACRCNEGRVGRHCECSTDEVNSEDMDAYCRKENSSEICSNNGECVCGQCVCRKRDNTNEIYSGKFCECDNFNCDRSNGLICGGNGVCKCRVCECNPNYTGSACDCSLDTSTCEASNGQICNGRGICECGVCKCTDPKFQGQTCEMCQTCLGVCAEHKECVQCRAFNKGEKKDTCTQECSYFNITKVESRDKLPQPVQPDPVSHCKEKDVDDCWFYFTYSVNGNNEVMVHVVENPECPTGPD
αvβ6, sequence (P06756 31-992 limits assumed): as the sequence (P06756 31-992 limits assumed) above
αvβ6, sequence (P18564 22-707 limits assumed): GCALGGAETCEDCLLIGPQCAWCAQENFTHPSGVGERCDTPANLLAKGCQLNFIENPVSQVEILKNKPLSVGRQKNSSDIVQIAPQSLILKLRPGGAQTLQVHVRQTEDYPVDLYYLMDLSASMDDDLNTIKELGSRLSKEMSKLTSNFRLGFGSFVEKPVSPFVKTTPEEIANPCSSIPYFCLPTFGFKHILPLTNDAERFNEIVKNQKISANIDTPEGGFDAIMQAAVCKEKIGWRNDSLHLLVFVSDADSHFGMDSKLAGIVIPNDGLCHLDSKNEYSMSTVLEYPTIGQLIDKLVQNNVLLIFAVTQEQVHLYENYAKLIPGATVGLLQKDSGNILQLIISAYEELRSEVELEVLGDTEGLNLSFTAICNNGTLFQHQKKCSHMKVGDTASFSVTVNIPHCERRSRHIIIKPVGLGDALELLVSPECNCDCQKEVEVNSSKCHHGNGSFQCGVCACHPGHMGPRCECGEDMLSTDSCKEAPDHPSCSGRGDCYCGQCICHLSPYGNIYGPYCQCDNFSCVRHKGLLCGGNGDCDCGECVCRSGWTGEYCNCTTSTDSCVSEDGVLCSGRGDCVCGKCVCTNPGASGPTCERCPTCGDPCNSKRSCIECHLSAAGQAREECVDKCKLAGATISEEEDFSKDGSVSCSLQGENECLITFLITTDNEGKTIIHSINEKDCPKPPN

For `O=C(CC[C@H](NC(=O)[C@@H]1CCCN1S(=O)(=O)c1ccccc1)C(=O)O)N[C@H]1CCN(C(=O)CCCc2ccc3c(n2)NCCC3)C1` [Compound 439], the 50% inhibitory concentration (IC50) was below 0.1 µM on αvβ1 and 0.1 to 1 µM against αvβ6.

Regarding `O=C(CC[C@@H](NC(=O)[C@H]1CCCN1S(=O)(=O)c1ccccc1)C(=O)O)N[C@H]1CCN(C(=O)CCCc2ccc3c(n2)NCCC3)C1` [Compound 440], the 50% inhibitory concentration (IC50) at αvβ1 was 0.1 to 1 µM; against αvβ6 it was above 1 µM.

For the compound `O=C(CC[C@@H](NC(=O)[C@@H]1CCCN1S(=O)(=O)c1ccccc1)C(=O)O)N[C@H]1CCN(C(=O)CCCc2ccc3c(n2)NCCC3)C1` [Compound 441], the concentration for half-maximal inhibition (IC50) on αvβ1 is below 0.1 µM; on αvβ6 it was above 1 µM.

As for `O=C(O)C[C@H](CO[C@H]1CCCN(CCCc2ccc3c(n2)NCCC3)C1)c1ccccc1` [Compound 442], the IC50 against αvβ1 and on αvβ6 was 0.1 to 1 µM in each case.

For `O=C(O)[C@@H](CCO[C@H]1CCCN(CCCc2ccc3c(n2)NCCC3)C1)NC(=O)C12CCC(CC1)CC2` [Compound 443], the IC50 against αvβ1 and against αvβ6 was 0.1 to 1 µM in each case.

As to `O=C(O)[C@@H](CCO[C@H]1CCCN(CCCc2ccc3c(n2)NCCC3)C1)Nc1ncnc2ccccc12` [Compound 444], the half-maximal inhibitory concentration (IC50) on αvβ1 and on αvβ6 was above 1 µM each time.

As to `O=C(O)C[C@@H](CO[C@H]1CCCN(CCCc2ccc3c(n2)NCCC3)C1)c1ccccc1` [Compound 445], the half-maximal inhibitory concentration (IC50) at αvβ1 and on αvβ6 was 0.1 to 1 µM in each case.

Take `O=C(O)[C@H](CCO[C@H]1CCCN(CCCc2ccc3c(n2)NCCC3)C1)Nc1ncnc2ccccc12` [Compound 446]: the concentration for half-maximal inhibition (IC50) at αvβ1 is 0.1 to 1 µM; against αvβ6, below 0.1 µM.

In the case of `O=C(O)[C@H](CCO[C@H]1CCCN(CCCc2ccc3c(n2)NCCC3)C1)NC(=O)C12CCC(CC1)CC2` [Compound 447], the IC50 against αvβ1 and against αvβ6 was below 0.1 µM in each case.

As for `CN1CCc2ccc(S(=O)(=O)N[C@@H](CNC(=O)[C@@H]3CCCN(CCCc4ccc5c(n4)NCCC5)C3)C(=O)O)cc21` [Compound 448], the IC50 on αvβ1 and against αvβ6 was below 0.1 µM throughout.

On to `O=C(NC[C@@H](Nc1cc(-c2ccccc2)ncn1)C(=O)O)[C@@H]1CCCN(CCCc2ccc3c(n2)NCCC3)C1` [Compound 449], for which the IC50 against αvβ1 and on αvβ6 was below 0.1 µM in each case.

Consider `CN1CCc2cc(S(=O)(=O)N[C@H](CNC(=O)[C@@H]3CCCN(CCCc4ccc5c(n4)NCCC5)C3)C(=O)O)ccc21` [Compound 450], for which the concentration for half-maximal inhibition (IC50) against αvβ1 is above 1 µM; at αvβ6, 0.1 to 1 µM.

Regarding `O=C(NC[C@H](Nc1ncc(C(F)(F)F)cn1)C(=O)O)[C@@H]1CCCN(CCCc2ccc3c(n2)NCCC3)C1` [Compound 451], the concentration for half-maximal inhibition (IC50) on αvβ1 and against αvβ6 was below 0.1 µM each time.

For `O=C(O)[C@](O)(CO[C@@H]1CCCN(CCCc2ccc3c(n2)NCCC3)C1)c1ccccc1` [Compound 452], the 50% inhibitory concentration (IC50) against αvβ1 and against αvβ6 was above 1 µM throughout.

In the case of `O=C(O)[C@@](O)(CO[C@@H]1CCCN(CCCc2ccc3c(n2)NCCC3)C1)c1ccccc1` [Compound 453], the 50% inhibitory concentration (IC50) at αvβ1 and at αvβ6 was above 1 µM each time.

As for `O=C(O)[C@@](O)(CO[C@@H]1CCCN(CCCCc2ccc3c(n2)NCCC3)C1)c1ccccc1` [Compound 454], the IC50 against αvβ1 and at αvβ6 was above 1 µM in each case.

On to `O=C(O)[C@](O)(CO[C@@H]1CCCN(CCCCc2ccc3c(n2)NCCC3)C1)c1ccccc1` [Compound 455], for which the half-maximal inhibitory concentration (IC50) against αvβ1 and against αvβ6 was above 1 µM each time.

Turning to `O=C(O)C[C@H](CO[C@@H]1CCCN(CCCc2ccc3c(n2)NCCC3)C1)c1cccc(-c2ccccc2)c1` [Compound 456], the IC50 at αvβ1 and at αvβ6 was below 0.1 µM throughout.

`O=C(O)C[C@@H](CO[C@@H]1CCCN(CCCc2ccc3c(n2)NCCC3)C1)c1cccc(-c2ccccc2)c1` [Compound 457]: the values for the IC50 at αvβ1 and against αvβ6 were above 1 µM and 0.1 to 1 µM, respectively.

Take `O=C(O)C[C@H](CO[C@@H]1CCCN(CCCc2ccc3c(n2)NCCC3)C1)c1ccc(-c2ccccc2)cc1` [Compound 458]: the IC50 against αvβ1 and at αvβ6 was below 0.1 µM in each case.

With `O=C(O)C[C@@H](CO[C@@H]1CCCN(CCCc2ccc3c(n2)NCCC3)C1)c1ccc(-c2ccccc2)cc1` [Compound 459], the figures for the 50% inhibitory concentration (IC50) on αvβ1 and against αvβ6 were above 1 µM and 0.1 to 1 µM, respectively.

For `O=C(O)C[C@H](CO[C@@H]1CCCN(CCCc2ccc3c(n2)NCCC3)C1)c1ccccc1-c1ccccc1` [Compound 460], the half-maximal inhibitory concentration (IC50) against αvβ1 and against αvβ6 was above 1 µM in each case.

With `O=C(O)C[C@@H](CO[C@@H]1CCCN(CCCc2ccc3c(n2)NCCC3)C1)c1ccccc1-c1ccccc1` [Compound 461], the IC50 against αvβ1 and at αvβ6 was above 1 µM in each case.

For the compound `O=C(O)C[C@H](CO[C@@H]1CCCN(CCCc2ccc3c(n2)NCCC3)C1)c1cccc(N2C[C@@H]3CC[C@H]2CO3)c1` [Compound 462], the IC50 against αvβ1 and against αvβ6 was below 0.1 µM each time.

`O=C(O)C[C@H](CO[C@@H]1CCCN(CCCc2ccc3c(n2)NCCC3)C1)c1cccc(N2C[C@H]3CC[C@@H]2CO3)c1` [Compound 463]: the IC50 against αvβ1 and against αvβ6 was 0.1 to 1 µM throughout.

Turning to `O=C(O)C[C@@H](CO[C@@H]1CCCN(CCCc2ccc3c(n2)NCCC3)C1)c1cccc(N2C[C@@H]3CC[C@H]2CO3)c1` [Compound 464], the half-maximal inhibitory concentration (IC50) against αvβ1 and at αvβ6 was 0.1 to 1 µM in each case.

Take `O=C(O)C[C@@H](CO[C@@H]1CCCN(CCCc2ccc3c(n2)NCCC3)C1)c1cccc(N2C[C@H]3CC[C@@H]2CO3)c1` [Compound 465]: the half-maximal inhibitory concentration (IC50) against αvβ1 and against αvβ6 was below 0.1 µM in each case.

With `O=C(N[C@@H](CCO[C@@H]1CCCN(CCCc2ccc3c(n2)NCCC3)C1)C(=O)O)c1c(F)cc(N2CCOC[C@@H]2C(F)(F)F)cc1F` [Compound 466], the IC50 at αvβ1 was below 0.1 µM; on αvβ6, 0.1 to 1 µM.

Consider `O=C(N[C@@H](CCO[C@@H]1CCCN(CCCc2ccc3c(n2)NCCC3)C1)C(=O)O)c1c(F)cc(N2CCOCC2)cc1F` [Compound 467], for which the concentration for half-maximal inhibition (IC50) against αvβ1 and on αvβ6 was below 0.1 µM in each case.

For `O=C(N[C@@H](CCO[C@@H]1CCCN(CCCc2ccc3c(n2)NCCC3)C1)C(=O)O)c1c(F)cccc1F` [Compound 468], the IC50 against αvβ1 and at αvβ6 was below 0.1 µM throughout.

Regarding `O=C(N[C@@H](CCO[C@@H]1CCCN(CCCc2ccc3c(n2)NCCC3)C1)C(=O)O)c1ccccc1` [Compound 469], the IC50 at αvβ1 and against αvβ6 was below 0.1 µM each time.

Regarding `O=C(O)[C@H](CCO[C@@H]1CCCN(CCCc2ccc3c(n2)NCCC3)C1)Nc1ncnc2ccsc12` [Compound 470], the half-inhibitory concentration (IC50) against αvβ1 and at αvβ6 was 0.1 to 1 µM in each case.

As for `Cc1csc2c(N[C@@H](CCO[C@@H]3CCCN(CCCc4ccc5c(n4)NCCC5)C3)C(=O)O)ncnc12` [Compound 471], the IC50 at αvβ1 and against αvβ6 was 0.1 to 1 µM in each case.

Take `O=C(O)[C@H](CCO[C@@H]1CCCN(CCCc2ccc3c(n2)NCCC3)C1)Nc1ncnc2sccc12` [Compound 472]: the values for the IC50 against αvβ1 and at αvβ6 were above 1 µM and below 0.1 µM, respectively.

For `Cc1csc2ncnc(N[C@@H](CCO[C@@H]3CCCN(CCCc4ccc5c(n4)NCCC5)C3)C(=O)O)c12` [Compound 473], the IC50 against αvβ1 and on αvβ6 was above 1 µM each time.

Turning to `O=C(O)[C@H](CCO[C@@H]1CCCN(CCCc2ccc3c(n2)NCCC3)C1)Nc1ncnc2cc(F)c(F)cc12` [Compound 474], the IC50 at αvβ1 is 0.1 to 1 µM; on αvβ6, below 0.1 µM.

Consider `O=C(O)[C@H](CCO[C@@H]1CCCN(CCCc2ccc3c(n2)NCCC3)C1)Nc1ncnc2cc(C(F)(F)F)ccc12` [Compound 475], for which the IC50 against αvβ1 and against αvβ6 was above 1 µM throughout.

Take `O=C(O)[C@H](CCO[C@@H]1CCCN(CCCc2ccc3c(n2)NCCC3)C1)NC(=O)[C@@H]1CCCN1S(=O)(=O)c1ccccc1` [Compound 476]: the IC50 against αvβ1 and at αvβ6 was below 0.1 µM each time.

Consider `O=C(O)[C@@](O)(CO[C@@H]1CCCN(Cc2ccc3c(n2)NCCC3)C1)c1ccccc1` [Compound 477], for which the concentration for half-maximal inhibition (IC50) at αvβ1 and against αvβ6 was above 1 µM in each case.

Take `O=C(O)[C@](O)(CO[C@@H]1CCCN(Cc2ccc3c(n2)NCCC3)C1)c1ccccc1` [Compound 478]: the IC50 against αvβ1 and against αvβ6 was above 1 µM in each case.

In the case of `O=C(N[C@H](CCO[C@@H]1CCCN(CCCc2ccc3c(n2)NCCC3)C1)C(=O)O)c1ccccc1` [Compound 479], the concentration for half-maximal inhibition (IC50) on αvβ1 and against αvβ6 was 0.1 to 1 µM in each case.

As to `O=C(N[C@H](CCO[C@@H]1CCCN(CCCc2ccc3c(n2)NCCC3)C1)C(=O)O)c1c(F)cccc1F` [Compound 480], the concentration for half-maximal inhibition (IC50) at αvβ1 and on αvβ6 was 0.1 to 1 µM each time.

With `O=C(O)C[C@H](CO[C@@H]1CCCN(CCCc2ccc3c(n2)NCCC3)C1)c1cc(C2CC2)ccc1F` [Compound 481], the IC50 against αvβ1 and against αvβ6 was below 0.1 µM in each case.

With `O=C(O)C[C@H](CO[C@@H]1CCCN(CCCc2ccc3c(n2)NCCC3)C1)c1cccc(N2CCCC2=O)c1` [Compound 482], the IC50 at αvβ1 and at αvβ6 was below 0.1 µM each time.

For `O=C(O)C[C@H](CO[C@@H]1CCCN(CCCc2ccc3c(n2)NCCC3)C1)c1cc(F)cc(C2CC2)c1` [Compound 483], the half-maximal inhibitory concentration (IC50) against αvβ1 and at αvβ6 was below 0.1 µM in each case.

Turning to `O=C(O)[C@@H](CCO[C@@H]1CCCN(CCCc2ccc3c(n2)NCCC3)C1)c1ccc(C2CC2)cc1` [Compound 484], the IC50 on αvβ1 and against αvβ6 was above 1 µM each time.

As to `O=C(O)[C@@H](CCO[C@@H]1CCCN(CCCc2ccc3c(n2)NCCC3)C1)c1ccc(F)c(-c2ccccc2)c1` [Compound 485], the 50% inhibitory concentration (IC50) on αvβ1 and against αvβ6 was above 1 µM in each case.

Values taken from patent US20240208968A1, “ALPHA V BETA 6 AND ALPHA V BETA 1 INTEGRIN INHIBITORS AND USES THEREOF” (DiCE Molecules SV, Inc., priority 2021, published 2024).
